Laboratory results published in patent US9738634B2, “Heterocyclic amide compound and herbicide” (SYNGENTA PARTICIPATIONS AG, priority 2013, dated 2017).

Experiments:
Format in all cases: in vivo
[1] = test system: bulrush; test: Test Example 1: weedkilling efficacy, preemergent weed treatment in the submerged state; B: bulrush
Description: (§1) Weedkilling efficacy test on preemergent weed treatment in the submerged state
(§2) Alluvial soil was introduced into 1/10,000 Are Wagner pots, and 4 cm depth submerged conditions were created by addition of water and mixing. Seeds of barnyard grass, bulrush and oval-leafed pondweed were mixed and sown into the aforesaid cups, then 2.5 leaf stage rice seedlings were transplanted. On the sowing day, emulsions of compounds of the present invention prepared according to compounding example 2 were diluted with water to give the specified dosages and applied onto the water surface. The plants were grown after placing the cups in a greenhouse at 25 to 30° C. 3 weeks after the pesticide treatment the effect on each type of plant was investigated on the basis of the following assessment criteria.
(§3) A: barnyard grass, B: bulrush, C: oval-leafed pondweed, D: crabgrass, E: green foxtail, F: barnyard grass, G: wild oat, H: black-grass, I: Italian ryegrass, J: common wind-grass, K: Indian mallow, L: redroot pigweed, M: fig-leafed goosefoot, N: chickweed, O: catchweed, p: birds-eye speedwell, a: transplanted rice, b: directly sown rice, c: corn, d: soybean, e: wheat, f: beet, g: rapeseed
(§4) Further, pesticide dosage (g/ha) indicates the concentration regulated such that treatment was with only the stated number of grams (g), when calculated per hectare (ha).

[2] = test system: bulrush; test: Test Example 2: weedkilling efficacy, growth period weed treatment in the submerged state; B: bulrush
Method: (§5) Weedkilling efficacy test on growth period weed treatment in the submerged state
as §2, with “and the plants were grown by placing in a greenhouse at 25 to 30° C. When the barnyard grass, bulrush and oval-leafed pondweed had reached the 1-2” for “then 2.5”, “stage,” for “stage rice seedlings were transplanted. On the sowing day,”, “surface.” for “surface. The plants were grown after placing the cups in a greenhouse at 25 to 30° C.”, “the” for “the following”, “criteria of test example 1.” for “criteria.”
as §3, §4

[3] = test system: barnyard grass; test: Test Example 2: weedkilling efficacy, growth period weed treatment in the submerged state; A: barnyard grass
Method: as §5
as §2, with “and the plants were grown by placing in a greenhouse at 25 to 30° C. When the barnyard grass, bulrush and oval-leafed pondweed had reached the 1-2” for “then 2.5”, “stage,” for “stage rice seedlings were transplanted. On the sowing day,”, “surface.” for “surface. The plants were grown after placing the cups in a greenhouse at 25 to 30° C.”, “the” for “the following”, “criteria of test example 1.” for “criteria.”
as §3, §4

[4] = test system: oval-leafed pondweed; test: Test Example 1: weedkilling efficacy, preemergent weed treatment in the submerged state; C: oval-leafed pondweed
Description: as §1, §2, §3, §4

[5] = test system: transplanted rice; test: Test Example 1: preemergent weed treatment in the submerged state, effect on crop; a: transplanted rice
Description: as §1, §2, §3, §4

[6] = test system: barnyard grass; test: Test Example 1: weedkilling efficacy, preemergent weed treatment in the submerged state; A: barnyard grass
Description: as §1, §2, §3, §4

[7] = test system: oval-leafed pondweed; test: Test Example 2: weedkilling efficacy, growth period weed treatment in the submerged state; C: oval-leafed pondweed
Method: as §5
as §2, with “and the plants were grown by placing in a greenhouse at 25 to 30° C. When the barnyard grass, bulrush and oval-leafed pondweed had reached the 1-2” for “then 2.5”, “stage,” for “stage rice seedlings were transplanted. On the sowing day,”, “surface.” for “surface. The plants were grown after placing the cups in a greenhouse at 25 to 30° C.”, “the” for “the following”, “criteria of test example 1.” for “criteria.”
as §3, §4

Row | Structure (SMILES) | B: bulrush, weed kill grade ([1]; treatment dosage 320 g/ha) | B (bulrush) weedkilling efficacy grade ([2]; treatment dosage 320 g/ha) | A (barnyard grass) weedkilling efficacy grade ([3]; treatment dosage 320 g/ha) | C: oval-leafed pondweed, weed kill grade ([4]; treatment dosage 320 g/ha) | a: transplanted rice, effect on crop grade ([5]; treatment dosage 320 g/ha) | A: barnyard grass, weed kill grade ([6]; treatment dosage 320 g/ha) | C (oval-leafed pondweed) weedkilling efficacy grade ([7]; treatment dosage 320 g/ha) | B: bulrush, weed kill grade ([1]; treatment dosage 252 g/ha) | B (bulrush) weedkilling efficacy grade ([2]; treatment dosage 252 g/ha) | A (barnyard grass) weedkilling efficacy grade ([3]; treatment dosage 252 g/ha) | C: oval-leafed pondweed, weed kill grade ([4]; treatment dosage 252 g/ha) | a: transplanted rice, effect on crop grade ([5]; treatment dosage 252 g/ha) | A: barnyard grass, weed kill grade ([6]; treatment dosage 252 g/ha) | C (oval-leafed pondweed) weedkilling efficacy grade ([7]; treatment dosage 252 g/ha) | further results
1 | CC(C)(C(=O)Nc1cccc(OC(F)F)n1)N1COCN(c2ccccc2)C1=O [A-2-54] | 5 (weed kill ratio 90% or more, (practically complete withering)) | 4 (weed kill ratio 70% or more, less than 90%) | 3 (weed kill ratio 40% or more, less than 70%) | 4 (weed kill ratio 70% or more, less than 90%) | 1 (weed kill ratio 5% or more, less than 20%) | 5 (weed kill ratio 90% or more, (practically complete withering)) | 3 (weed kill ratio 40% or more, less than 70%) | – | – | – | – | – | – | – | –
2 | CC(C)(C(=O)Nc1cc(Oc2ccccc2)ccn1)N1COCN(c2ccccc2)C1=O [A-2-55] | – | – | – | – | – | – | – | – | – | – | – | – | – | – | B: bulrush, weed kill grade ([1]; treatment dosage 234 g/ha): 5 (weed kill ratio 90% or more, (practically complete withering)); B (bulrush) weedkilling efficacy grade ([2]; treatment dosage 234 g/ha): 2 (weed kill ratio 20% or more, less than 40%); A (barnyard grass) weedkilling efficacy grade ([3]; treatment dosage 234 g/ha): 0 (weed kill ratio 5% or less (practically no effect)); C: oval-leafed pondweed, weed kill grade ([4]; treatment dosage 234 g/ha): 5 (weed kill ratio 90% or more, (practically complete withering)); a: transplanted rice, effect on crop grade ([5]; treatment dosage 234 g/ha): 0 (weed kill ratio 5% or less (practically no effect)); A: barnyard grass, weed kill grade ([6]; treatment dosage 234 g/ha): 5 (weed kill ratio 90% or more, (practically complete withering)); C (oval-leafed pondweed) weedkilling efficacy grade ([7]; treatment dosage 234 g/ha): 5 (weed kill ratio 90% or more, (practically complete withering))
3 | Cc1cc(C)nc(NC(=O)C(C)(C)N2COCN(c3ccccc3)C2=O)c1 [A-2-56] | – | – | – | – | – | – | – | 5 (weed kill ratio 90% or more, (practically complete withering)) | 5 (weed kill ratio 90% or more, (practically complete withering)) | 4 (weed kill ratio 70% or more, less than 90%) | 5 (weed kill ratio 90% or more, (practically complete withering)) | 0 (weed kill ratio 5% or less (practically no effect)) | 5 (weed kill ratio 90% or more, (practically complete withering)) | 3 (weed kill ratio 40% or more, less than 70%) | –
4 | Cc1cc(NC(=O)C(C)(C)N2COCN(c3ccccc3)C2=O)nc(C(F)(F)F)c1 [A-2-57] | 5 (weed kill ratio 90% or more, (practically complete withering)) | 5 (weed kill ratio 90% or more, (practically complete withering)) | 5 (weed kill ratio 90% or more, (practically complete withering)) | 5 (weed kill ratio 90% or more, (practically complete withering)) | 0 (weed kill ratio 5% or less (practically no effect)) | 5 (weed kill ratio 90% or more, (practically complete withering)) | 5 (weed kill ratio 90% or more, (practically complete withering)) | – | – | – | – | – | – | – | –
5 | Cc1cc(C(F)(F)F)cc(NC(=O)C(C)(C)N2COCN(c3ccccc3)C2=O)n1 [A-2-58] | 5 (weed kill ratio 90% or more, (practically complete withering)) | 5 (weed kill ratio 90% or more, (practically complete withering)) | 5 (weed kill ratio 90% or more, (practically complete withering)) | 5 (weed kill ratio 90% or more, (practically complete withering)) | 1 (weed kill ratio 5% or more, less than 20%) | 5 (weed kill ratio 90% or more, (practically complete withering)) | 5 (weed kill ratio 90% or more, (practically complete withering)) | – | – | – | – | – | – | – | –
6 | CCOc1cc(C(F)(F)F)cc(NC(=O)C(C)(C)N2COCN(c3ccccc3)C2=O)n1 [A-2-60] | 5 (weed kill ratio 90% or more, (practically complete withering)) | 5 (weed kill ratio 90% or more, (practically complete withering)) | 5 (weed kill ratio 90% or more, (practically complete withering)) | 5 (weed kill ratio 90% or more, (practically complete withering)) | 2 (weed kill ratio 20% or more, less than 40%) | 5 (weed kill ratio 90% or more, (practically complete withering)) | 5 (weed kill ratio 90% or more, (practically complete withering)) | – | – | – | – | – | – | – | –
7 | CC(C)(C(=O)Nc1cncc(F)c1)N1COCN(c2ccccc2)C1=O [A-3-01] | – | – | – | – | – | – | – | 5 (weed kill ratio 90% or more, (practically complete withering)) | 5 (weed kill ratio 90% or more, (practically complete withering)) | 1 (weed kill ratio 5% or more, less than 20%) | 4 (weed kill ratio 70% or more, less than 90%) | 1 (weed kill ratio 5% or more, less than 20%) | 5 (weed kill ratio 90% or more, (practically complete withering)) | 2 (weed kill ratio 20% or more, less than 40%) | –
8 | CC(C)(C(=O)Nc1cncc(Cl)c1)N1COCN(c2ccccc2)C1=O [A-3-02] | – | – | – | – | – | – | – | 5 (weed kill ratio 90% or more, (practically complete withering)) | 5 (weed kill ratio 90% or more, (practically complete withering)) | 2 (weed kill ratio 20% or more, less than 40%) | 5 (weed kill ratio 90% or more, (practically complete withering)) | 2 (weed kill ratio 20% or more, less than 40%) | 5 (weed kill ratio 90% or more, (practically complete withering)) | 3 (weed kill ratio 40% or more, less than 70%) | –
9 | CC(C)(C(=O)Nc1cncc(Br)c1)N1COCN(c2ccccc2)C1=O [A-3-03] | – | – | – | – | – | – | – | 5 (weed kill ratio 90% or more, (practically complete withering)) | 5 (weed kill ratio 90% or more, (practically complete withering)) | 3 (weed kill ratio 40% or more, less than 70%) | 5 (weed kill ratio 90% or more, (practically complete withering)) | 0 (weed kill ratio 5% or less (practically no effect)) | 5 (weed kill ratio 90% or more, (practically complete withering)) | 4 (weed kill ratio 70% or more, less than 90%) | –
10 | CC(C)(C(=O)Nc1cc(Br)cnc1F)N1COCN(c2ccccc2)C1=O [A-3-04] | – | – | – | – | – | – | – | 5 (weed kill ratio 90% or more, (practically complete withering)) | 5 (weed kill ratio 90% or more, (practically complete withering)) | 5 (weed kill ratio 90% or more, (practically complete withering)) | 5 (weed kill ratio 90% or more, (practically complete withering)) | 3 (weed kill ratio 40% or more, less than 70%) | 5 (weed kill ratio 90% or more, (practically complete withering)) | 3 (weed kill ratio 40% or more, less than 70%) | –
11 | CC(C)(C(=O)Nc1cnc(Cl)c(Cl)c1)N1COCN(c2ccccc2)C1=O [A-3-05] | 5 (weed kill ratio 90% or more, (practically complete withering)) | 5 (weed kill ratio 90% or more, (practically complete withering)) | 4 (weed kill ratio 70% or more, less than 90%) | 5 (weed kill ratio 90% or more, (practically complete withering)) | 0 (weed kill ratio 5% or less (practically no effect)) | 3 (weed kill ratio 40% or more, less than 70%) | 5 (weed kill ratio 90% or more, (practically complete withering)) | – | – | – | – | – | – | – | –
12 | CC(C)(C(=O)Nc1cc(Cl)cnc1Cl)N1COCN(c2ccccc2)C1=O [A-3-06] | – | – | – | – | – | – | – | 5 (weed kill ratio 90% or more, (practically complete withering)) | 4 (weed kill ratio 70% or more, less than 90%) | 3 (weed kill ratio 40% or more, less than 70%) | 4 (weed kill ratio 70% or more, less than 90%) | 1 (weed kill ratio 5% or more, less than 20%) | 5 (weed kill ratio 90% or more, (practically complete withering)) | 2 (weed kill ratio 20% or more, less than 40%) | –
